Data reported in article PMC8496750, “Identification of the organic anion transporting polypeptides responsible for the hepatic uptake of the major metabolite of epyrifenacil, S‐3100‐CA, in mice” (Pharmacology Research & Perspectives, 2021).
Read-outs that look alike come from different tables or passages of the source.

Assay: Metabolite analysis in plasma, liver, and kidney (TLC)
Assay type: in vivo, Crl:CD1(ICR) mice
Settings: Crl:CD1(ICR), mouse
Source text: Precoated silica gel 60 F254 chromatoplate (20 × 20 cm, 0.25‐ or 0.5‐mm layer thickness, Merck KGaA) was used for two‐dimensional thin layer chromatography (2D‐TLC) analysis. The solvent systems were ethyl formate/formic acid (95/5, v/v) for the first dimension, and ethyl acetate/acetic acid (95/5, v/v) for the second dimension. The radioactivity on the TLC plates was detected by autoradiography using an imaging plate processed with a fluoro‐image analyzer (FLA‐9500, GE Healthcare). The identity of the metabolites was confirmed by co‐chromatography in comparison with authentic metabolite standards.
Three mice per sex at 8 weeks old were given a single oral dose of [^14C]epyrifenacil at 1 mg/kg with or without co‐administration of OATP inhibitors. […] At 2 h after administration of [^14C]epyifenacil, the animals were euthanized by whole blood collection from the abdominal aorta under anesthesia with isoflurane. The sampling time point was selected as the time around T max based on the result of the blood ^14C‐concentration study. Then, the liver and kidney were dissected out, and the amount of ^14C was measured. Aliquots of heparinized blood samples were separated into blood cells and plasma by centrifugation at 2000g for 10 min at 4°C. The total weight of the liver and kidney was determined for each animal. Two aliquots of plasma and tissue samples (approximately 0.05–0.1 g) were weighed in a glass vial, and the radioactivity was measured.
Approximately 0.3 g of liver, kidney, and plasma samples were pooled, respectively, for each dose and gender to obtain samples for analysis. Pooled liver, kidney, and plasma (ca. 1 g each) samples were homogenized with an approximately 3‐fold volume (v/w) of methanol using the mixer mill MM400 (5 min, 25 cycles/second, Retsch GmbH) and centrifuged (10 000g, 5 min, 4°C) to separate the supernatants from the residues. The extraction was repeated one additional time. The supernatants obtained were pooled and labeled liver, kidney, and plasma extracts. These samples were concentrated and then subjected to TLC analysis. For calculation of extraction efficacy, the post‐extraction solids (PESs) from the tissues and plasma extracts were sampled in low potassium glass vials. PESs were solubilized with 3 M potassium hydroxide solution (approximately 1 ml), then bleached with 30% hydrogen peroxide solution, and finally mixed with 10 ml of Hionic‐Fluor to measure the radioactivity.

[1] = kidney, oral, with rifampicin (OATP inhibitor) 200 mg/kg p.o., Male, 2 h after [^14C]Epyrifenacil 1 mg/kg p.o. + Rifampicin 200 mg/kg p.o., read-out: Metabolite concentration, Kidney
[2] = kidney, oral, Female, 2 h after [^14C]Epyrifenacil 1 mg/kg p.o., read-out: Metabolite concentration, Kidney
[3] = kidney, oral, Male, 2 h after [^14C]Epyrifenacil 1 mg/kg p.o., read-out: Metabolite concentration, Kidney
[4] = liver, oral, Female, 2 h after [^14C]Epyrifenacil 1 mg/kg p.o., read-out: Metabolite concentration, Liver
[5] = liver, oral, Male, 2 h after [^14C]Epyrifenacil 1 mg/kg p.o., read-out: Metabolite concentration, Liver
[6] = plasma, oral, Female, 2 h after [^14C]Epyrifenacil 1 mg/kg p.o., read-out: Metabolite concentration, Plasma
[7] = plasma, oral, Male, 2 h after [^14C]Epyrifenacil 1 mg/kg p.o., pooled samples, read-out: Metabolite concentration, Plasma

## CNC(=O)Nc1cc(Oc2cccnc2OCC(=O)O)c(Cl)cc1F [M2]
[1]
  concentration at 2 h: 1 ng/g
[2]
  concentration at 2 h: 2 ng/g
[3]
  concentration at 2 h: 4 ng/g
[4]
  concentration at 2 h: 11 ng/g
[5]
  concentration at 2 h: 24 ng/g
plasma, oral, with rifampicin (OATP inhibitor) 200 mg/kg p.o., Female, 2 h after [^14C]Epyrifenacil 1 mg/kg p.o. + Rifampicin 200 mg/kg p.o., read-out: Metabolite concentration, Plasma
  concentration at 2 h: 16 ng/g
plasma, oral, with rifampicin (OATP inhibitor) 200 mg/kg p.o., Male, 2 h after [^14C]Epyrifenacil 1 mg/kg p.o. + Rifampicin 200 mg/kg p.o., read-out: Metabolite concentration, Plasma
  concentration at 2 h: 35 ng/g
[6]
  concentration at 2 h: 55 ng/g
[7]
  concentration at 2 h: 20 ng/g

## CN1C(=O)N(c2cc(Oc3cccnc3OCC(=O)O)c(Cl)cc2F)C(=O)CC1(O)C(F)(F)F (centres unmarked) [M4]
female, in vivo, 1 mg/kg, Female, 2 h after [^14C]Epyrifenacil 1 mg/kg p.o., read-out: Metabolite concentration, Kidney
  concentration at 2 h: 23 ng/g
female, in vivo, 1 mg/kg, Female, 2 h after [^14C]Epyrifenacil 1 mg/kg p.o., read-out: Metabolite concentration, Liver
  concentration at 2 h: 858 ng/g
female, in vivo, Female, 2 h after [^14C]Epyrifenacil 1 mg/kg p.o. + Digoxin 100 mg/kg i.p., read-out: Metabolite concentration, Kidney
  concentration at 2 h: 30 ng/g
female, in vivo, Female, 2 h after [^14C]Epyrifenacil 1 mg/kg p.o. + Digoxin 100 mg/kg i.p., read-out: Metabolite concentration, Liver
  concentration at 2 h: 553 ng/g
female, in vivo, Female, 2 h after [^14C]Epyrifenacil 1 mg/kg p.o. + Digoxin 200 mg/kg p.o., read-out: Metabolite concentration, Kidney
  concentration at 2 h: 7 ng/g
female, in vivo, Female, 2 h after [^14C]Epyrifenacil 1 mg/kg p.o. + Digoxin 200 mg/kg p.o., read-out: Metabolite concentration, Liver
  concentration at 2 h: 291 ng/g
female, in vivo, Female, 2 h after [^14C]Epyrifenacil 1 mg/kg p.o. + Rifampicin 200 mg/kg p.o., read-out: Metabolite concentration, Kidney
  concentration at 2 h: 15 ng/g
female, in vivo, Female, 2 h after [^14C]Epyrifenacil 1 mg/kg p.o. + Rifampicin 200 mg/kg p.o., read-out: Metabolite concentration, Liver
  concentration at 2 h: 129 ng/g
female, in vivo, Female, 2 h after [^14C]Epyrifenacil 1 mg/kg p.o. + Rifampicin 200 mg/kg p.o., read-out: Metabolite concentration, Plasma
  concentration at 2 h: 22 ng/g
male, in vivo, 1 mg/kg, Male, 2 h after [^14C]Epyrifenacil 1 mg/kg p.o., pooled samples, read-out: Metabolite concentration, Plasma
  concentration at 2 h: 3 ng/g
male, in vivo, 1 mg/kg, Male, 2 h after [^14C]Epyrifenacil 1 mg/kg p.o., read-out: Metabolite concentration, Kidney
  concentration at 2 h: 9 ng/g
male, in vivo, 1 mg/kg, Male, 2 h after [^14C]Epyrifenacil 1 mg/kg p.o., read-out: Metabolite concentration, Liver
  concentration at 2 h: 1030 ng/g
male, in vivo, Male, 2 h after [^14C]Epyrifenacil 1 mg/kg p.o. + Digoxin 100 mg/kg i.p., read-out: Metabolite concentration, Kidney
  concentration at 2 h: 14 ng/g
male, in vivo, Male, 2 h after [^14C]Epyrifenacil 1 mg/kg p.o. + Digoxin 100 mg/kg i.p., read-out: Metabolite concentration, Liver
  concentration at 2 h: 651 ng/g
male, in vivo, Male, 2 h after [^14C]Epyrifenacil 1 mg/kg p.o. + Digoxin 200 mg/kg p.o., read-out: Metabolite concentration, Kidney
  concentration at 2 h: 5 ng/g
male, in vivo, Male, 2 h after [^14C]Epyrifenacil 1 mg/kg p.o. + Digoxin 200 mg/kg p.o., read-out: Metabolite concentration, Liver
  concentration at 2 h: 157 ng/g
male, in vivo, Male, 2 h after [^14C]Epyrifenacil 1 mg/kg p.o. + Rifampicin 200 mg/kg p.o., read-out: Metabolite concentration, Kidney
  concentration at 2 h: 22 ng/g
male, in vivo, Male, 2 h after [^14C]Epyrifenacil 1 mg/kg p.o. + Rifampicin 200 mg/kg p.o., read-out: Metabolite concentration, Liver
  concentration at 2 h: 172 ng/g
male, in vivo, Male, 2 h after [^14C]Epyrifenacil 1 mg/kg p.o. + Rifampicin 200 mg/kg p.o., read-out: Metabolite concentration, Plasma
  concentration at 2 h: 4 ng/g

## Cn1c(C(F)(F)F)cc(=O)n(-c2cc(Oc3ccc[nH]c3=O)c(Cl)cc2F)c1=O [M6]
[1]
  concentration at 2 h: 1 ng/g
[2]
  concentration at 2 h: 4 ng/g
[3]
  concentration at 2 h: 8 ng/g
[4]
  concentration at 2 h: 6 ng/g
[5]
  concentration at 2 h: 12 ng/g
[6]
  concentration at 2 h: 15 ng/g
[7]
  concentration at 2 h: 3 ng/g
